Among the data in patent EP2812315B1, “PYRROLIC DERIVATIVES, PROCESSES FOR PREPARING THE SAME AND THEIR USES AS A DRUG” (Universite Joseph Fourier, priority 2012, dated 2013) are MIC values, retold here.

Experiment in all cases: Other MIC determination, microdilution method (CLSI M07-A9) with modifications
Format in all cases: cell-based
Background: Dilution methods test growth across graded concentrations, often in twofold steps.

Test [1] has as its system Staphylococcus warneri (CHUG-Swar2). Particulars: clinical strain. As for the experimental part:
(§1) The microdilution method recommended by the Clinical and Laboratory Standard Institute [M07-A9, Vol.32, N°2] was used with the following modifications.
(§2) Bacterial inocula were prepared in Mueller Hinton broth (MH2, BioMérieux, Marcy L'Etoile, France). They were dispensed in 96 well microtiter plates (10^6 CFU/ml of final inoculum, 192 µL per well).
(§3) To avoid cross-contaminations in microtiter plates, one row was left blank between each strain tested. Microplates were incubated for 18h at 37 °C in ambient air. Then MICs were read visually and, in case of visual reading difficulties, confirmed using a spectrophotometer at a wavelength of 630 nm (BioTek® EL808 Absorbance Microplate Reader). MICs corresponded to the minimum pyrrolic compound concentrations that allowed complete visual growth inhibition of bacteria. Drug-free cultures served as growth controls.
(§4) We used four Staphylococcus aureus strains. Two reference strains were provided by the French reference center for Staphylococcus spp. (Lyon, France), including one methicillin-susceptible (MSSA 476) and one methicillin-resistant (MRSA 252) S. aureus strains. The two remaining S. aureus strains were purchased from the CRBIP (Centre de Ressources Biologiques de l'Institut Pasteur): a vancomycin-intermediate strain (ATCC 106414) and a S. aureus strain (SA-1199B) resistant to fluoroquinolones due to overexpression of the NorA multidrug efflux pump. Coagulase-negative Staphylococcus strains included three reference strains purchased from CRBIP: a methicillin-susceptible S. epidermidis strain (ATCC 12228), a methicillin-resistant S. epidermidis strain (ATCC 49461), and a methicillin-susceptible S. sciuri strain (ATCC 29061). We also used 37 clinical strains belonging to the following coagulase-negative Staphylococcus species: S. arlettae (two strains), S. capitis (nine strains), S. epidermidis (one strain), S. haemolyticus (six strains), S. hominis (eight strains), S. lugdunensis (one strain), S. massiliensis (one strain), S. pettenkoferi (two strains), S. saprophyticus (two strains), S. simulans (one strain), and S. warneri (four strains) . Identification of the clinical strains was first obtained using VITEK® 2 System (Biomérieux) and confirmed by amplification and sequencing of the tuf gene (Reference: Bergeron, M., O. Dauwalder, M. Gouy, A.-M. Freydiere, M. Bes, H. Meugnier, Y. Benito, J. Etienne, G. Lina, F. Vandenesch, and S. Boisset. Species identification of staphylococci by amplification and sequencing of the tuf gene compared to the gap gene and by matrix-assisted laser desorption ionization time-of-flight mass spectrometry, Eur. J. Clin. Microbial. Infect. Dis. 2011, 30, 343-354).
(§5) The activity of the pyrrolic compounds 3c and 3i was further tested against 32 clinical strains belonging to 11 coagulase-negative Staphylococcus species.

The test system of test [2] is Staphylococcus warneri (CHUG-Swar3). Particulars: clinical strain. As for the experimental part: as §1, §2, §3, §4, §5
Test [3] has as its system Staphylococcus haemolyticus (CHUG-Shae6). How it is done: as §1, §2, §3, §4, §5
Test [4] deals with Staphylococcus warneri (CHUG-Swar4). Conditions: clinical strain. As for the experimental part:
as §1, §2, §3, §4, §5

For test [5], the system named is Staphylococcus haemolyticus (CHUG-Shae4). How it is done: as §1, §2, §3, §4, §5
The test system of test [6] is Staphylococcus hominis (CHUG-Shom6). Conditions: clinical strain. As for the experimental part: as §1, §2, §3, §4, §5
The test system of test [7] is Staphylococcus capitis (CHUG-Scapi3). Particulars: clinical strain. As for the experimental part: as §1, §2, §3, §4, §5
Test [8] has as its system Staphylococcus capitis (CHUG-Scapi10). Conditions: clinical strain. As for the experimental part:
as §1, §2, §3, §4, §5

Test [9] deals with Staphylococcus capitis (CHUG-Scapi6). Particulars: clinical strain. How it is done:
as §1, §2, §3, §4, §5

Test [10] relates to Staphylococcus hominis (CHUG-Shom2). Conditions: clinical strain. How it is done:
as §1, §2, §3, §4, §5

Test [11] concerns Staphylococcus pettenkoferi (CHUG-Spet2). Conditions: clinical strain. As for the experimental part: as §1, §2, §3, §4, §5
Test [12] has as its system Staphylococcus arlettae (CHUG-Sarl2, meti-R). As for the experimental part:
as §1, §2, §3, §4, §5

In test [13] the test system is Staphylococcus hominis (CHUG-Shom4). Conditions: clinical strain. How it is done:
as §1, §2, §3, §4, §5

Test [14] deals with Staphylococcus saprophyticus (CHUG-Ssap2). Conditions: clinical strain. As for the experimental part: as §1, §2, §3, §4, §5
For test [15], the system named is Staphylococcus saprophyticus (CHUG-Ssap1). Conditions: clinical strain. As for the experimental part: as §1, §2, §3, §4, §5
Test [16] deals with Staphylococcus hominis (CHUG-Shom3). Particulars: clinical strain. As for the experimental part: as §1, §2, §3, §4, §5
The subject of test [17] is Staphylococcus capitis (CHUG-Scapi2). Conditions: clinical strain. How it is done: as §1, §2, §3, §4, §5
For test [18], the system named is Staphylococcus epidermidis (CHUG-Sepi1). Conditions: clinical strain. As for the experimental part: as §1, §2, §3, §4, §5
The test system of test [19] is Staphylococcus capitis (CHUG-Scapi9). Conditions: clinical strain. How it is done:
as §1, §2, §3, §4, §5

For test [20], the system named is Staphylococcus haemolyticus (CHUG-Shae2). How it is done: as §1, §2, §3, §4, §5
Test [21] deals with Staphylococcus massiliensis (CHUG-Smas1). Particulars: clinical strain. How it is done:
as §1, §2, §3, §4, §5

Test [22] has as its system Staphylococcus simulans (CHUG-Ssim1). Conditions: clinical strain. As for the experimental part:
as §1, §2, §3, §4, §5

The subject of test [23] is Staphylococcus arlettae (CHUG-Sarl1). Particulars: clinical strain. How it is done: as §1, §2, §3, §4, §5

Converted amounts (≈) assume the structure as drawn.

For `CC(=O)c1c(C)[nH]c(C(c2ccc(Cl)cc2)c2[nH]c(C)c(C(C)=O)c2C)c1C` [3c], the MIC in test [1] was 8 µg/mL (≈ 20.2 µM); in [2], 8 µg/mL (≈ 20.2 µM); in test [3], 16 µg/mL (≈ 40.3 µM); in test [4], 16 µg/mL (≈ 40.3 µM); in [5] it was 16 µg/mL (≈ 40.3 µM); in test [6] it was over 32 µg/mL. Besides, the MIC in test [7] is 8 µg/mL (≈ 20.2 µM); in [8], 8 µg/mL (≈ 20.2 µM); in test [9], 8 µg/mL (≈ 20.2 µM); in test [10] it was over 32 µg/mL; in test [11] it was over 32 µg/mL; in [12], over 32 µg/mL. Further, the MIC in test [13] is over 32 µg/mL; in [14] it was over 32 µg/mL; in test [15] it was over 32 µg/mL; in test [16] it was over 32 µg/mL; in test [17] it was 16 µg/mL (≈ 40.3 µM); in [18], 8 µg/mL (≈ 20.2 µM). Also, the MIC in [19] is 8 µg/mL (≈ 20.2 µM); in [20] it was over 32 µg/mL; in test [21], over 32 µg/mL; in [22], over 32 µg/mL; in test [23], over 32 µg/mL.
Consider `CC(=O)c1c(C)[nH]c(C(c2[nH]c(C)c(C(C)=O)c2C)c2csc3ccccc23)c1C` [3i], for which the MIC is 1 µg/mL (≈ 2.39 µM) in test [1]; 1 µg/mL (≈ 2.39 µM) in [2]; 4 µg/mL (≈ 9.56 µM) in test [3]; 4 µg/mL (≈ 9.56 µM) in [4]; 4 µg/mL (≈ 9.56 µM) in test [5]; over 32 µg/mL in test [6]. Besides, the MIC in test [7] is 1 µg/mL (≈ 2.39 µM); in [8] it was 2 µg/mL (≈ 4.78 µM); in [9] it was 1 µg/mL (≈ 2.39 µM); in test [10], over 16 µg/mL; in [11] it was over 16 µg/mL; in test [12], 16 µg/mL (≈ 38.2 µM). Besides, the MIC is 16 µg/mL (≈ 38.2 µM) in [13]; 8 µg/mL (≈ 19.1 µM) in [14]; 8 µg/mL (≈ 19.1 µM) in test [15]; over 32 µg/mL in test [16]; 2 µg/mL (≈ 4.78 µM) in test [17]; over 32 µg/mL in test [18]. Besides, the MIC in test [19] is 2 µg/mL (≈ 4.78 µM); in test [20] it was 8 µg/mL (≈ 19.1 µM); in [21], over 16 µg/mL; in [22] it was over 32 µg/mL; in [23], over 16 µg/mL.

By MIC is commonly meant the lowest concentration that inhibits growth of the organism.
